Columns and labels:
Assay type in all cases: in vivo
[1] = system: female imagines of Kanzawa spider mite (Tetranychus kanzawai kishida) which had acquired a strong resistance to chlorfenapyr; assay: Miticidal effect on female imagines of chlorfenapyr-resistant Kanzawa spider mite, leaf disk spray test
Protocol: In this experiment, the miticidal effect against female imagines (adults) of Kanzawa spider mite (Tetranychus kanzawai kishida) which are registrant to chlorfenapyr is evaluated.
Round leaf disks (2 cm diameter) are cut out of a first leaf of kidney bean by a leaf punch and 4 sheets of the disks are placed on wet sanitary cotton in a plastic cup (8 cm diameter). On each leaf disk, 4 female imagines of Kanzawa spider mite (Tetranychus kanzawai kishida) which had acquired a strong resistance to chlorfenapyr are inoculated.
After the inoculation, chlorfenapyr and a compound(s) selected from group A are dispersed in water containing 200 ppm of an extender (Sorpol 3005X) and diluted such that a predetermined concentration of active ingredient is obtained. Each plastic cup is sprayed with 3.5 ml of a test solution with a rotary spray tower (Mizuho Scientific Co., Ltd.) and stored in a constant temperature chamber held at 25±1° C. (32 individuals are tested per concentration, 4−5 concentrations are evaluated per formulation, and 2 performances were repeated). Two days after treatment, the number of living and dead female imagines of Kanzawa spider mite (Tetranychus kanzawai kishida) which had acquired a strong resistance to chlorfenapyr is counted and the mortality (%) is calculated according the formula shown hereinbelow.
A co-toxicity coefficient is calculated by applying Sun and Johnson's formula (J. Econ. Ent., Vol 53, p. 887, […]) which is generally used to determine the degree of synergistic activity.
Co-toxicity coefficient=T^c [formula]
For T^c values greater than 100, the greater value indicates a stronger synergistic action. For a T^c value equal to 100, an additive action is indicated. For T^c values less than 100, the lesser value indicates a greater antagonistic action. A more detailed description of the calculation of the co-toxicity coefficient using the above-referenced Sun and Johnson formula follows.
The LC50 values of Test Compound A alone and Test Compound B alone and the LC50 value of the (A+B) mixture M is determined.
Actual toxicity index of mixture M=M^ti
Each LC50 value of effective ingredient A and effective ingredient B and the LC50 value of the mixture of A+B are used to determine the actual toxicity index as shown in the equation below. [formula]
Theoretical toxicity index of mixture M=Th.M^ti
Th.M^ti=(Toxicity index of A×%A in M+Toxicity index of B×%B in M)
Toxicity index of B=B^ti [formula]

[2] = system: susceptible strain of Kanzawa spider mite; assay: LC50 against susceptible strain of Kanzawa spider mite
From the text: By comparison, the LC50 value for chlorfenapyr against a susceptible strain of Kanzawa spider mite is about 5 ppm.

[3] = system: female imagines of Kanzawa spider mite (Tetranychus kanzawai kishida) which had acquired a strong resistance to chlorfenapyr; assay: Miticidal effect on female imagines of chlorfenapyr-resistant Kanzawa spider mite, leaf disk spray test; details: resistant strain obtained by long artificial selection in the laboratory, compared with susceptible strain
[4] = single test compound, chlorfenapyr-resistant strain, female imago, mortality two days after treatment, probit analysis
[5] = single test compound, chlorfenapyr-resistant strain

Row | Compound | LC50 [1, 4] [ppm] | miticidal effect (in words) [1, 5] | LC50 [2] | resistance to chlorfenapyr of the resistant strain [3] [fold] | LC50 ([1]; in vivo) [ppm]
1 | C/C1=C\C[C@@H]2C[C@@H](C[C@]3(CC[C@H](C)[C@@H](C)O3)O2)OC(=O)[C@@H]2CC[C@@H](O)[C@H]3OC/C(=C\C=C\[C@H](C)C1)[C@]32O (mixture of isomers) [Milbemectin] | 0.28 |  |  |  | 
2 | Cc1ccc(N=CN(C)C=Nc2ccc(C)cc2C)c(C)c1 [Amitraz, 3-methyl-1,5-bis(2,4-xylyl)-1,3,5-triazapenta-1,4-diene] | 200 | low effects |  |  | 
3 | CCC(C)c1cc([N+](=O)[O-])cc([N+](=O)[O-])c1OC(=O)C=C(C)C (stereo not drawn) [Binapacryl, 2,4-dinitro-6-sec-butylphenyldimethyl-acrylate] | 180 |  |  |  | 
4 | CCOCn1c(-c2ccc(Cl)cc2)c(C#N)c(Br)c1C(F)(F)F [Chlorfenapyr, 4-bromo-2-(4-chloropheny)-1-(ethoxymethyl)-5-(trifuloromethyl)pyrrole-3-carbonitrile] | 1500 |  | about 5 ppm | ~300 | 
5 | CN(C)C(=O)SCCCCOc1ccccc1 [Fenothiocarb, S-4-phenoxybutyl-dimethylthiocarbamate] | 1000 |  |  |  | 
6 | OC(c1ccc(Cl)cc1)(c1ccc(Cl)cc1)C(Cl)(Cl)Cl [Kelthane (Dicofol)] | 32 | high miticidal effect |  |  | 
7 | CC(C)OC(=O)C(O)(c1ccc(Br)cc1)c1ccc(Br)cc1 [Phenisobromalate, isopropyl 4,4′-dibromobenzilate] | 280 | low effects |  |  | 
8 | CCOCCc1ccc(OCCNc2ncnc(CC)c2Cl)c(C)c1C [Pyrimidifen, 5-chloro-N-{2-[2,3-dimethyl-4-(2-ethoxyethyl)phenoxy]ethyl}-6-ethyl-4-pyrimidinamine] |  | high miticidal effect |  |  | 10
9 | O=S(=O)(c1ccc(Cl)cc1)c1cc(Cl)c(Cl)cc1Cl [Tetradifon, 2,4,5,4′-tetrachlorodiphenyisulfone] | 4900 | low miticidal effect |  |  | 
10 | dinitromethylheptylphenyl crotonate [DPC] | 630 | low effects |  |  | 
